According to patent US7384959B2, “Treatment of convulsive states” (priority 1999, dated 2008):
Marks after values point to notes of the source that are not given here.

What was measured:
[1] = test system: attention-deficit hyperactivity disorder (ADHD); conditions: Patrick et al 1987; cited from earlier work
rat [2] = assay: barbital interaction (sleep induction) test; format: in vivo; conditions: for NUMBER OF RATS SLEEPING: 10 rats per group; for SLEEP DURATION mean ± s.e.m.: maximum 6 hours after barbital injection
From the text: (§1) The following Tables report the results of the Irwin, PTZ and barbital interaction (sleep induction) tests. Description of these tests may be found in Psychopharmacologica, 13:222-257 (1968), Krall et al, Epilepsia 19:409-428 (1978), and Simon et al, J. Pharmacol, Paris 13:241-252 (1982). See also Roux et al, Phoenix international Pharmacology Reports Nos. D30.2061/2 and D99.021/2.
In Table 3, the following apply: Student's t Test: NS=Not Significant; *=p<0.05; **=p<0.01; ***=<0.001 Fisher's Exact Test: (number of rats sleeping) No indication=Not Significant; +=p<0.05; ++=p<0.01; +++=p<0.001 • (#): maximum=6 hours after barbital injection (taken 50 minutes after barbital injection).

rat [3] = assay: Pentylenetetrazole (PTZ) Seizure Test; format: in vivo; conditions: for NUMBER OF CLONIC CONVULSIONS number of rats / NUMBER OF DEATHS number of rats / NUMBER OF TONIC CONVULSIONS number of rats: 10 rats per group; for NUMBER OF CLONIC CONVULSIONS number of rats / NUMBER OF DEATHS number of rats / NUMBER OF TONIC CONVULSIONS number of rats / NUMBER OF CLONIC CONVULSIONS % antagonism / NUMBER OF DEATHS % antagonism / NUMBER OF TONIC CONVULSIONS % antagonism: observed during 60 minutes
From the text: as §1
Table 2a reports mean results based on animals showing the symptoms (minimum=3 animals). Table 2b reports results observed during 60 minutes. In these Tables: Student's t Test: NS=Not Significant; *=p<0.05; ** p<0.01; ***=p<0.001 Fisher's Exact Test: No indication=Not Significant; **=p<0.01; ***=p<0.001

[4] = intravenous administration; Srinivas 1993; cited from earlier work
patients with epilepsy = conditions: ABPI Compendium 1999-2000; cited from earlier work

**Q.** What does the source list for `COC(=O)[C@H](c1ccccc1)[C@H]1CCCCN1` [d-MPH, d-threo-Methylphenidate]?
**A.** pharmacological action in the treatment of ADHD [1]: is the property of the d-enantiomer; SLEEP DURATION % change from control (rat [2]; 0.25 mg/kg s.c. −30 min): −83%; NUMBER OF RATS SLEEPING (rat [2]; 0.25 mg/kg s.c. −30 min): 6; SLEEP DURATION mean ± s.e.m. (rat [2]; 0.25 mg/kg s.c. −30 min): 10.5 ± 5.3** min; SLEEP DURATION % change from control (rat [2]; 0.5 mg/kg s.c. −30 min): −65%; NUMBER OF RATS SLEEPING (rat [2]; 0.5 mg/kg s.c. −30 min): 8; SLEEP DURATION mean ± s.e.m. (rat [2]; 0.5 mg/kg s.c. −30 min): 21.6 ± 13.5* min; SLEEP DURATION % change from control (rat [2]; 1 mg/kg s.c. −30 min): −97%; NUMBER OF RATS SLEEPING (rat [2]; 1 mg/kg s.c. −30 min): 3 ++; SLEEP DURATION mean ± s.e.m. (rat [2]; 1 mg/kg s.c. −30 min): 2.1 ± 1.5*** min; SLEEP DURATION % change from control (rat [2]; 2 mg/kg s.c. −30 min): −100%; NUMBER OF RATS SLEEPING (rat [2]; 2 mg/kg s.c. −30 min): 0 ++; SLEEP DURATION mean ± s.e.m. (rat [2]; 2 mg/kg s.c. −30 min): 0.0 ± 0.0*** min

**Q.** Which “SLEEP DURATION % change from control” value (rat [2]; 16 mg/kg s.c. −30 min) does the source give for `Cn1c(=O)c2c(ncn2C)n(C)c1=O` [Caffeine] here?
**A.** Its value is −99%.

**Q.** What about the “NUMBER OF RATS SLEEPING” value (rat [2]; 16 mg/kg s.c. −30 min) of the same compound?
**A.** Its value is 1 +++.

**Q.** What about the “SLEEP DURATION mean ± s.e.m.” value (rat [2]; 16 mg/kg s.c. −30 min) of the same compound?
**A.** The value was 0.5 ± 0.5*** min.

**Q.** Which “NUMBER OF CLONIC CONVULSIONS number of rats” value (rat [3]; 4 mg/kg s.c. −30 min) does the source give for `CN1C(=O)CN=C(c2ccccc2)c2cc(Cl)ccc21` [DIAZEPAM, diazepam, reference compound] here?
**A.** Its value is 0+++.

**Q.** And the “NUMBER OF DEATHS number of rats” value (rat [3]; 4 mg/kg s.c. −30 min)?
**A.** The value was 0+++.

**Q.** What about the “NUMBER OF TONIC CONVULSIONS number of rats” value (rat [3]; 4 mg/kg s.c. −30 min) of the same compound?
**A.** The value was 0+++.

**Q.** And the “NUMBER OF CLONIC CONVULSIONS % antagonism” value (rat [3]; 4 mg/kg s.c. −30 min)?
**A.** The value was 100%.

**Q.** And the “NUMBER OF DEATHS % antagonism” value (rat [3]; 4 mg/kg s.c. −30 min)?
**A.** Its value is 100%.

**Q.** And the “NUMBER OF TONIC CONVULSIONS % antagonism” value (rat [3]; 4 mg/kg s.c. −30 min)?
**A.** The value was 100%.

**Q.** For `CCOC(=O)c1ncn2c1CN(C)C(=O)c1cc(N=[N+]=[N-])ccc1-2` [RO 15-4513, reference compound], which “NUMBER OF CLONIC CONVULSIONS number of rats” value (rat [3]; 2 mg/kg s.c. −30 min) is on record?
**A.** The value was 10.

**Q.** And the “NUMBER OF DEATHS number of rats” value (rat [3]; 2 mg/kg s.c. −30 min)?
**A.** The value was 10.

**Q.** And the “NUMBER OF TONIC CONVULSIONS number of rats” value (rat [3]; 2 mg/kg s.c. −30 min)?
**A.** Its value is 10.

**Q.** And the “NUMBER OF CLONIC CONVULSIONS % antagonism” value (rat [3]; 2 mg/kg s.c. −30 min)?
**A.** Its value is 0%.

**Q.** What about the “NUMBER OF DEATHS % antagonism” value (rat [3]; 2 mg/kg s.c. −30 min) of the same compound?
**A.** Its value is 0%.

**Q.** And the “NUMBER OF TONIC CONVULSIONS % antagonism” value (rat [3]; 2 mg/kg s.c. −30 min)?
**A.** The value was 0%.

**Q.** And the “LATENCY TO CLONIC CONVULSIONS % change from control” value (rat [3]; 2 mg/kg s.c. −30 min, rat)?
**A.** Its value is −37%.

**Q.** And the “LATENCY TO CLONIC CONVULSIONS mean ± s.e.m.” value (rat [3]; 2 mg/kg s.c. −30 min, rat)?
**A.** Its value is 345.0 ± 59.4* sec.

**Q.** What about the “LATENCY TO DEATHS % change from control” value (rat [3]; 2 mg/kg s.c. −30 min, rat) of the same compound?
**A.** Its value is −36%.

**Q.** What about the “LATENCY TO DEATHS mean ± sem.” value (rat [3]; 2 mg/kg s.c. −30 min, rat) of the same compound?
**A.** Its value is 837.0 ± 116.7** sec.

**Q.** And the “LATENCY TO TONIC CONVULSIONS % change from control” value (rat [3]; 2 mg/kg s.c. −30 min, rat)?
**A.** Its value is −42%.

**Q.** What about the “LATENCY TO TONIC CONVULSIONS mean ± sem.” value (rat [3]; 2 mg/kg s.c. −30 min, rat) of the same compound?
**A.** The value was 681.0 ± 102.6** sec.

**Q.** What does the source list for `COC(=O)C(c1ccccc1)C1CCCCN1` (racemic) [d,l-MPH, d,l-threo-methylphenidate]?
**A.** time after dosing with similar plasma levels of the two enantiomers [4]: around 1.5 hours; SLEEP DURATION % change from control (rat [2]; 0.25 mg/kg s.c. −30 min): +51%; NUMBER OF RATS SLEEPING (rat [2]; 0.25 mg/kg s.c. −30 min): 9; SLEEP DURATION mean ± s.e.m. (rat [2]; 0.25 mg/kg s.c. −30 min): 94.2 ± 18.3 NS min; SLEEP DURATION % change from control (rat [2]; 0.5 mg/kg s.c. −30 min): −19%; NUMBER OF RATS SLEEPING (rat [2]; 0.5 mg/kg s.c. −30 min): 8; SLEEP DURATION mean ± s.e.m. (rat [2]; 0.5 mg/kg s.c. −30 min): 50.2 ± 16.2 NS min; SLEEP DURATION % change from control (rat [2]; 1 mg/kg s.c. −30 min): −100%; NUMBER OF RATS SLEEPING (rat [2]; 1 mg/kg s.c. −30 min): 0 +++; SLEEP DURATION mean ± s.e.m. (rat [2]; 1 mg/kg s.c. −30 min): 0.0 ± 0.0*** min; SLEEP DURATION % change from control (rat [2]; 2 mg/kg s.c. −30 min): −70%; NUMBER OF RATS SLEEPING (rat [2]; 2 mg/kg s.c. −30 min): 4 +; SLEEP DURATION mean ± s.e.m. (rat [2]; 2 mg/kg s.c. −30 min): 19.0 ± 12.6 min; SLEEP DURATION % change from control (rat [2]; 4 mg/kg s.c. −30 min): −100%; NUMBER OF RATS SLEEPING (rat [2]; 4 mg/kg s.c. −30 min): 0 +++; SLEEP DURATION mean ± s.e.m. (rat [2]; 4 mg/kg s.c. −30 min): 0.0 ± 0.0*** min; effect on seizure frequency (patients with epilepsy): can cause an increase in seizure frequency in a small number of such patients
